Experimental data published in patent US8680282B2, “Cyclic inhibitors of carnitine palmitoyltransferase and treating cancer” (University Health Network, priority 2007, dated 2014).

Columns and labels:
Assay in all cases: Cancer cell growth inhibition, SRB assay
Assay type in all cases: cell-based, human
[1] = test system: H358; details: Homo sapiens, NCI-H358, 144 h; H358 (Lung); SRB at Day 6; triplicate
Protocol: (§1) Human cancer cells (MCF-7, H358, H460, HCT116 p53^+/+, HCT116 p53^−/−, A172, PC-3, DU-145 and SW626) were maintained in DMEM medium containing 10% Fetal Bovine Serum (FBS) (Invitrogen, Burlington, ON, Canada) and normal cells HMEC, 184A1, NHBE and PrEC were cultured in MEGM, MEGM plus transferring and cholera toxin, BEGM and PrEGM supplemented with various growth factors (Cambrex, Charles city, Iowa, USA), respectively.
(§2) Compounds of Examples S1 to S30, and 4-(carboxymethyl)-4-(6-(3-hexyloxy)phenoxy)hexanoamido)-1,1-dimethylpiperidinium 2,2,2-trifluoroactate (“Compound A”) were tested in this example. Each of the tested compounds was dissolved in DMSO and further diluted in cell culture medium for the experiments performed. Cells were seeded into 96-well plates with 1,500-5,000 cells/well according to cell growth rate. After 24 h, DMEM medium containing 10% FBS were changed to DMEM containing 3% FBS for cancer cells. The compound was added into the cell culture at the indicated concentrations, and the final concentration of DMSO was adjusted to a final concentration of 0.1%. Cell viability was assessed by Sulforhodamine B (SRB) assay at Day 6.
(§3) Sulforhodamine B (SRB) (Sigma, Oakville, ON, Canada) is a water-soluble dye that binds to the basic amino acids of the cellular proteins. Thus, colorimetric measurement of the bound dye provides an estimate of the total protein mass that is related to the cell number. The cells were fixed in situ by gently aspirating off the culture media and adding 50 ul of cold 10% Tri-chloroacetic Acid (TCA) per well and incubated at 4° C. for 30-60 min. The plates were washed five times with water and allowed to air dry for 5 min. 50 ul of 0.4% (w/v) SRB dissolved in 1% (v/v) acetic acid were added into each well, plates were then incubated at RT for 30 min for staining, washed four times with 1% acetic acid to remove any unbound dye and then allowed to air dry for 5 min. Stain was solubilized with 100 ul of 10 mM Tris pH 10.5 per well. Absorbance was read at 570 nm on a spectrophotometer. GI50 (compound concentration required for 50% of growth inhibition) was calculated using GraphPad Prism 4.0 software (GraphPad Software, Inc., San Diego, Calif., USA). Growth inhibition (%) was determined as percentage of cells remaining compared to the DMSO-treated cells as control.

[2] = test system: A549; details: Homo sapiens, 144 h; A549 (Lung); SRB at Day 6; triplicate
[3] = test system: A172; details: Homo sapiens, A 172, 144 h; A172 (Brain); SRB at Day 6; triplicate
Protocol: as §1, §2, §3

[4] = test system: PC-3; details: Homo sapiens, 144 h; PC-3 (Prostate); SRB at Day 6; triplicate
Protocol: as §1, §2, §3

[5] = test system: COLO-205; details: Homo sapiens, 144 h; COLO-205 (Colon); SRB at Day 6; triplicate
[6] = test system: HCT-15; details: Homo sapiens, 144 h; HCT-15 (Colon); SRB at Day 6; triplicate
[7] = test system: SW620; details: Homo sapiens, SW-620, 144 h; SW620 (Colon); SRB at Day 6; triplicate

| SMILES | GI50 [1] [µM] | GI50 [2] [µM] | GI50 [3] [µM] | GI50 [4] [µM] | GI50 [5] [µM] | GI50 [6] [µM] | GI50 [7] [µM] |
| --- | --- | --- | --- | --- | --- | --- | --- |
| CCCCCCCCc1ccc(NC(=O)NC2(CC(=O)O)CNC2)cc1 [Example S23, 3-(carboxymethyl)-3-(3-(4-octylphenyl)ureido)azetidinium 2,2,2-trifluoroacetate] | 14 | > 50 | 7.2 | 24 | 35 | 28 | 43 |
| CCCCCCCCc1ccc(NC(=O)NC2(CC(=O)O)C[N+](C)(C)C2)cc1 [Example S24, 3-(Carboxymethyl)-1,1-dimethyl-3-(3-(4-octylphenyl)ureido)azetidinium 2,2,2-trifluoroacetate] | 19 | 36 | 41 | 21 | 28 | 38 | 44 |
| CCCCCc1ccc(S(=O)(=O)NC2(CC(=O)O)C[N+](C)(C)C2)cc1 [Example S29, 3-(carboxymethyl)-1,1-dimethyl-3-(4-pentylphenylsulfonamido)-azetidinium 2,2,2-trifluoroacetate] | 86 | > 50 | > 50 | > 50 | 28 | > 50 | > 77 |
| CCCCCCCCc1ccc(N(C)S(=O)(=O)NC2(CC(=O)O)CCC[N+](C)(C)C2)cc1 (stereo not shown) [Example S30, 3-(carboxymethyl)-1,1-dimethyl-3-(N-methyl-N-(4-octylphenyl)-sulfamoylamino)piperidinium 2,2,2-trifluoroacetate] | 2.9 | 1 | 0.6 | 0.7 | 1.6 | 14 | 3.5 |
